Experimental data taken from ChEMBL document CHEMBL5696442, “Discovery of type II inhibitors of TGFβ-activated kinase 1 (TAK1) and mitogen-activated protein kinase kinase kinase kinase 2 (MAP4K2)” (J Med Chem, 2015).

How the values were obtained:
[1] = target: Casein kinase I isoform epsilon (Homo sapiens) (UniProt P49674); test: Inhibition of CK1epsilon Lys2 labeling site in human Huh-7 cell lysate at 1 uM by KiNativ Profiling analysis relative to control; format: subcellular
[2] = target: Serine/threonine-protein kinase MARK2 (Homo sapiens) (UniProt Q7KZI7); test: Inhibition of MARK2 Lys2 labeling site harbouring FIVHRDLKAENLLLDADMNIK in human Huh-7 cell lysate at 1 uM by KiNativ Profiling analysis relative to control; format: subcellular
Serine/threonine-protein kinase MARK2 (Homo sapiens), sequence (Q7KZI7 whole entry): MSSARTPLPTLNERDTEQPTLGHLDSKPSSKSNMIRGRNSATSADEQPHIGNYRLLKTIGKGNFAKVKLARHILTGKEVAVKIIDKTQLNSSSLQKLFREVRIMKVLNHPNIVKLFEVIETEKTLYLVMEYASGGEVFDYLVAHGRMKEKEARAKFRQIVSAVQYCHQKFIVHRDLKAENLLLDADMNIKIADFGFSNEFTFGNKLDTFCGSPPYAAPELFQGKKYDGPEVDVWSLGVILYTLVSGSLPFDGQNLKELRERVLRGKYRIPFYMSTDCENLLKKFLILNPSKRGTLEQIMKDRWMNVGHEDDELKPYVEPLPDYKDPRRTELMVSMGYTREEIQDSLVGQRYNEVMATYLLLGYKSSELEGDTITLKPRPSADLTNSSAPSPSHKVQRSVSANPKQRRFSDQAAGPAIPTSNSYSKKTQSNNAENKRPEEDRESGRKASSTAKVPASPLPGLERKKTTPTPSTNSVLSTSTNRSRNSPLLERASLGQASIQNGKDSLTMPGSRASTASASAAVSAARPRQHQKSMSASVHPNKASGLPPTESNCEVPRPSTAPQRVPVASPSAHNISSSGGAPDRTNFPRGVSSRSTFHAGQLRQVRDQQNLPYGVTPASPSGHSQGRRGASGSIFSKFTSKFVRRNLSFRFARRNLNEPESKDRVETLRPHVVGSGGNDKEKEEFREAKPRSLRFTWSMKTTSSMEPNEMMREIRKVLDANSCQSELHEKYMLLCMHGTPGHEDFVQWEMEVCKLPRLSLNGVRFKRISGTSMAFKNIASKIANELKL

[3] = target: T1, Serine/threonine-protein kinase Chk1 (Homo sapiens) (UniProt O14757); test: Inhibition of CHK1 in human Huh-7 cell lysate at 1 uM by KiNativ Profiling analysis relative to control; format: subcellular
T1 sequence (whole entry): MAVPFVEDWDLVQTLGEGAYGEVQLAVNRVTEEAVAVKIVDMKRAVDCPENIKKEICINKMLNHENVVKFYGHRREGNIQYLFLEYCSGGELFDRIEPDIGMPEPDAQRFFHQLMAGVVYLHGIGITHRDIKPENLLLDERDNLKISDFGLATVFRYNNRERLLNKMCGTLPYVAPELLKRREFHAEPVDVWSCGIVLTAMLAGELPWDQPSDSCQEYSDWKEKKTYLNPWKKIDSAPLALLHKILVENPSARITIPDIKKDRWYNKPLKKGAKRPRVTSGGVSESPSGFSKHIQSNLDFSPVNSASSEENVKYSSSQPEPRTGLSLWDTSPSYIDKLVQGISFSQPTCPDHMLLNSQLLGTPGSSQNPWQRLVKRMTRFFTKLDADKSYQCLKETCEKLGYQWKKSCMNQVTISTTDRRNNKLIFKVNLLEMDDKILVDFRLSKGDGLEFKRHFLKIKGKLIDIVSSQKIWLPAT

[4] = target: Cytoplasmic tyrosine-protein kinase BMX (Homo sapiens) (UniProt P51813); test: Inhibition of BMX (unknown origin) at 10 uM by Ambit Kinomescan binding assay relative to control
Cytoplasmic tyrosine-protein kinase BMX (Homo sapiens), sequence (P51813 whole entry): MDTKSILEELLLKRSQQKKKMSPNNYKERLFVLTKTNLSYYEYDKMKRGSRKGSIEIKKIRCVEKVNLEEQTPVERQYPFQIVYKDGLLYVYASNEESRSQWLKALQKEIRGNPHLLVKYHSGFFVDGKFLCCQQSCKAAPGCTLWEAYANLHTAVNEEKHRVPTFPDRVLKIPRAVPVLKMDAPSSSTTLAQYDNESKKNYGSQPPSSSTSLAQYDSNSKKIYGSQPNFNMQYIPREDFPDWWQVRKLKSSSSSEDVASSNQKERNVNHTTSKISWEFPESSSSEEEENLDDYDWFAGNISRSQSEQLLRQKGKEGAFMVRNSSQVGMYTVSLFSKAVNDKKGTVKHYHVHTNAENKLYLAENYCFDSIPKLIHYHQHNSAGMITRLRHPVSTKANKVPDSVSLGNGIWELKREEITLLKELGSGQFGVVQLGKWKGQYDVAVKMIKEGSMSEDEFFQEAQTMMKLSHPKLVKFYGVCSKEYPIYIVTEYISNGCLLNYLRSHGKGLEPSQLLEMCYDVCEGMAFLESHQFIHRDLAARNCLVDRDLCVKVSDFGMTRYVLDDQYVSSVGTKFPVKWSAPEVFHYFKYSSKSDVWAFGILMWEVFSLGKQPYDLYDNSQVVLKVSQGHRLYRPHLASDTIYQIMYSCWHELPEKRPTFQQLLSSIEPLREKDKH

[5] = target: Tyrosine-protein kinase CSK (Homo sapiens, UniProt P41240); test: Inhibition of CSK ACT labeling site harbouring VSDFGLTKEASSTQDTGKLPVKWTAPEALR in human A-375 cells at 5 uM by KiNativ Profiling analysis relative to control; format: cell-based
Tyrosine-protein kinase CSK, sequence (P41240 2-450 limits assumed): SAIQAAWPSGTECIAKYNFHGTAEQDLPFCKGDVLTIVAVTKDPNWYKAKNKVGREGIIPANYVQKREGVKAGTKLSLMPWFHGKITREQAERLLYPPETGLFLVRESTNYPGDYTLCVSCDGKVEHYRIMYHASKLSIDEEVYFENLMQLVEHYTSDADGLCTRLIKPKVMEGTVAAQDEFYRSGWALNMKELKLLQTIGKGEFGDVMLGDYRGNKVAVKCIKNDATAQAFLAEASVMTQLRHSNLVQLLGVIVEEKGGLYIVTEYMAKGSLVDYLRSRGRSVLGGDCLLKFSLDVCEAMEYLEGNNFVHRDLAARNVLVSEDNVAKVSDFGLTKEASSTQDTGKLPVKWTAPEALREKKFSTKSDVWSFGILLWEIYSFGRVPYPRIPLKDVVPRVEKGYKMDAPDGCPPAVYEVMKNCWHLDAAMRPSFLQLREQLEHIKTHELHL

[6] = target: T2, Serine/threonine-protein kinase TAO2 (Homo sapiens) (UniProt Q9UL54); test: Inhibition of TAOK2 (unknown origin) at 1 uM by Ambit Kinomescan binding assay relative to control
T2 sequence (whole entry): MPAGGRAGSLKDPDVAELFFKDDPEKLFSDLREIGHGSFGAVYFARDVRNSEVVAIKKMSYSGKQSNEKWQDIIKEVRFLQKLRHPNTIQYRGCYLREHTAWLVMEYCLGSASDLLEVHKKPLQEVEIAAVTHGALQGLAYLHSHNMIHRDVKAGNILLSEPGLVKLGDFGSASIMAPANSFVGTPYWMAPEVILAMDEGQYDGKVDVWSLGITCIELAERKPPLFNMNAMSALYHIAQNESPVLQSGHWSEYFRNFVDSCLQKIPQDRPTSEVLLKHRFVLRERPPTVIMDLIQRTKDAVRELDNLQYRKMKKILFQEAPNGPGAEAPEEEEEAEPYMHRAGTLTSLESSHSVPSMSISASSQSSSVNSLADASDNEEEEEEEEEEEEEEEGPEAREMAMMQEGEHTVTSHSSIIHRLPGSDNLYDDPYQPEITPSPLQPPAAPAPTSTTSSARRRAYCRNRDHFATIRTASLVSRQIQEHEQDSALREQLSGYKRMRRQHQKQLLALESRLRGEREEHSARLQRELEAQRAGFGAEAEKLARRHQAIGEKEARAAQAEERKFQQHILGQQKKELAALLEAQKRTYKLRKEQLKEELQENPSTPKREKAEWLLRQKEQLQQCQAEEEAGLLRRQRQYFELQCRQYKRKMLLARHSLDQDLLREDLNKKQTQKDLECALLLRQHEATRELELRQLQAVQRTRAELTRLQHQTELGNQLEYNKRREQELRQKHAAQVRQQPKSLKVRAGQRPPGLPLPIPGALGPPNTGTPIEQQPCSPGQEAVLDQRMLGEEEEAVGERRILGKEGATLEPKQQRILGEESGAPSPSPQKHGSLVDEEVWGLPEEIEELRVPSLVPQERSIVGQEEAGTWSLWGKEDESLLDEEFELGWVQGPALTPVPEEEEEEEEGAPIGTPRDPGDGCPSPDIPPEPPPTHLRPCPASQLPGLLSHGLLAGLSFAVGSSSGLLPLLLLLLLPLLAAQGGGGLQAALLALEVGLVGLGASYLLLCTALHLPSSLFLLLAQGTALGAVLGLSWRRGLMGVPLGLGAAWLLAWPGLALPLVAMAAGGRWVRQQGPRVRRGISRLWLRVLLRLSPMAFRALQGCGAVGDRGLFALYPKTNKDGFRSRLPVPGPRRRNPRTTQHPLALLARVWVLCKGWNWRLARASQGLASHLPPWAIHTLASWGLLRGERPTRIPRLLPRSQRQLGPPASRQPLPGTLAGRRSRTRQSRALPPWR

[7] = target: Calcium/calmodulin-dependent protein kinase type II subunit delta (Homo sapiens) (UniProt Q13557); test: Inhibition of CAMK2D (unknown origin) at 1 uM by Ambit Kinomescan binding assay relative to control; values are per cent of control
Calcium/calmodulin-dependent protein kinase type II subunit delta (Homo sapiens), sequence (Q13557 whole entry): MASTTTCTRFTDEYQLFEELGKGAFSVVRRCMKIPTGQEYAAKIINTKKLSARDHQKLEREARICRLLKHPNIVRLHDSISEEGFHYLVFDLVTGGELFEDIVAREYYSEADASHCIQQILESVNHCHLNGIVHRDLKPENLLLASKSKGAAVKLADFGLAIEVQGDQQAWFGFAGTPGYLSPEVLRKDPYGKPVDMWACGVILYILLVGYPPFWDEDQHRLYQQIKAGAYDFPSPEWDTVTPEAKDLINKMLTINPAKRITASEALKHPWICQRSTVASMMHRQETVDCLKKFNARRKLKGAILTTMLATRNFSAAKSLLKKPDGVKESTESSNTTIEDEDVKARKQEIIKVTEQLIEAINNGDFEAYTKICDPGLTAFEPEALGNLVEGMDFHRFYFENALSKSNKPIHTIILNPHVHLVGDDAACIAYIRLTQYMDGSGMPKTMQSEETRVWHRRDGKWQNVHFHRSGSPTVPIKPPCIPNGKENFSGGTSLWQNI

[8] = target: Phosphatidylinositol 4-kinase beta (Homo sapiens) (UniProt Q9UBF8); test: Inhibition of PI4KB ATP labeling site harbouring VPHTQAVVLNSKDK in human A-375 cells at 0.05 uM by KiNativ Profiling analysis relative to control; format: cell-based
Phosphatidylinositol 4-kinase beta (Homo sapiens), sequence (Q9UBF8 2-816 limits assumed): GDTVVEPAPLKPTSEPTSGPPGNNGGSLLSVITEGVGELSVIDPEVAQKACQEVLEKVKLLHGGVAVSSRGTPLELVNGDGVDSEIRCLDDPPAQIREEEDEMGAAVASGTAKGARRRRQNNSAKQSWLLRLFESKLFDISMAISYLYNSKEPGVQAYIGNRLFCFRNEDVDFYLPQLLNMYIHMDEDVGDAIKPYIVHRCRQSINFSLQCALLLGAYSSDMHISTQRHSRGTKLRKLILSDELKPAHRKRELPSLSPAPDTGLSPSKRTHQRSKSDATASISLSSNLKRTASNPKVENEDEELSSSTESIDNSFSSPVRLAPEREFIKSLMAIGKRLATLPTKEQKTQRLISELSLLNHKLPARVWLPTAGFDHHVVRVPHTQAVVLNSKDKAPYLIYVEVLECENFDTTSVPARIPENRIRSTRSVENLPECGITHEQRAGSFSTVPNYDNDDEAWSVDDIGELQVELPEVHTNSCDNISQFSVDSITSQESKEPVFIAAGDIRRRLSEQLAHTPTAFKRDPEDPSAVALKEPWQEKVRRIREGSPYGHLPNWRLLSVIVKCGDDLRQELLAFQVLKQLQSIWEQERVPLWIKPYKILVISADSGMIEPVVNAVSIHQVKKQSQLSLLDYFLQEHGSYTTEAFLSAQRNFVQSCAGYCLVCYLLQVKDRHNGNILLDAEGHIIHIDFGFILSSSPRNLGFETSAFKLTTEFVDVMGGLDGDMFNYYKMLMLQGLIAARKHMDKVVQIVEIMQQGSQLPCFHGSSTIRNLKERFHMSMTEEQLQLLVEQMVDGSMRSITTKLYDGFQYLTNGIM

[9] = target: 3-phosphoinositide-dependent protein kinase 1 (Homo sapiens) (UniProt O15530); test: Inhibition of PDPK1 (unknown origin) at 1 uM by Ambit Kinomescan binding assay relative to control; values are per cent of control
3-phosphoinositide-dependent protein kinase 1 (Homo sapiens), sequence (O15530 whole entry): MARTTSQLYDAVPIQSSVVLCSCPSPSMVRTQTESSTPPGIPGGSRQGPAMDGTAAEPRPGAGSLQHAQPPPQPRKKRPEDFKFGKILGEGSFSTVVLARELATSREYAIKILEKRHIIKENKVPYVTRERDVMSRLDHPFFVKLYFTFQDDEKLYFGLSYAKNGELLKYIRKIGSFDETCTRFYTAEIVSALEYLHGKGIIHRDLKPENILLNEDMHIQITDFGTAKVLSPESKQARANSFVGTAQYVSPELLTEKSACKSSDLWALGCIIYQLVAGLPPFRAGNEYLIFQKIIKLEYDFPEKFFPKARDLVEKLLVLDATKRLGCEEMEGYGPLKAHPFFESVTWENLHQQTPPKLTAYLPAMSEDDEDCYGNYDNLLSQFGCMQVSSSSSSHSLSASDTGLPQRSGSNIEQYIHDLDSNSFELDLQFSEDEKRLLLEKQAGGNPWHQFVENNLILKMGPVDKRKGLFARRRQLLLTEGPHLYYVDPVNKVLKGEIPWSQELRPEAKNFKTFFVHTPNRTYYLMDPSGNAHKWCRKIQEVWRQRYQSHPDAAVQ

Casein kinase I isoform epsilon (Homo sapiens), sequence (P49674 whole entry, looked up, canonical isoform): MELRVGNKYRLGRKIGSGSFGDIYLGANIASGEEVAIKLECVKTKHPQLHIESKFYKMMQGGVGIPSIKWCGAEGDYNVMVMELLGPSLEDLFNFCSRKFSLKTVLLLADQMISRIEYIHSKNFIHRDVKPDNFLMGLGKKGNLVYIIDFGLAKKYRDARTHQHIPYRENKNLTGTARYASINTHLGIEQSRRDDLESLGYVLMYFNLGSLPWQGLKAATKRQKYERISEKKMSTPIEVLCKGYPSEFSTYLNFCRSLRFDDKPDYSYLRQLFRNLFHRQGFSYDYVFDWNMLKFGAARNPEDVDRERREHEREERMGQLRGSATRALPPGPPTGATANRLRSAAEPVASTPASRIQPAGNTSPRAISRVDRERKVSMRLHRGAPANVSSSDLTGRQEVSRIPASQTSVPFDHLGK

CNc1cc(Oc2cc(C(=O)Nc3cc(N4CCN(C)CC4)cc(C(F)(F)F)c3)ccc2C)ncn1
inhibition [1]: 0.6%
inhibition [2]: 6%
inhibition [3]: 0.5%

CCN1CCN(Cc2ccc(NC(=O)c3ccc(C)c(Oc4ccnc5[nH]ccc45)c3)cc2C(F)(F)F)CC1
inhibition [4]: 2.4%
inhibition [5]: 57.7%

CCN1CCN(Cc2ccc(NC(=O)c3ccc(C)c(/C=C/c4cnc5[nH]ccc5c4OC)c3)cc2C(F)(F)F)CC1
inhibition [6]: 16%
residual activity [7]: 100%
inhibition [8]: -10%
residual activity [9]: 100%
